# Test results taken from patent US11629146B2, “Substituted [1,2,4]triazolo[4,3-a]pyrazines as modulators of sodium channel activity” (Praxis Precision Medicines, Inc., priority 2016, dated 2023).
# Read-outs that look alike come from different tables or passages of the source.
# How the values were obtained:
# [1] = PK rat clearance experiment; format: in vivo; details: male Sprague-Dawley rats, single intravenous bolus 0.5 mg/kg, plasma
# Description: The IV dosing solution was prepared freshly on the dosing day. Test article (0.5 mg/kg) was prepared in a vehicle, for example, consisting of 5% DMSO/5% solutol/90% water. The concentrations of test article in all dosing solutions were determined by HPLC/UV. Three male Sprague-Dawley rats were used in this study. The animals were confirmed healthy before being assigned to the study. Each animal was given a unique identification number which was marked on the tail or the ear, and written on the cage card. All animals were fasted overnight before dosing and the food was returned at 4 hours post dosing. Water was provided to all animals ad libitum during the fasting period. Animals were weighed prior to dose administration on the day of dosing for calculating the actual dose volume. The body weights were in the range from 212 g to 223 g for males. All animals received test article by single intravenous bolus administration at 0.5 mg/kg. Approximately 0.2 mL blood was collected at each time point via jugular vein from each study animal. […] All blood samples were transferred into pre-labeled plastic micro centrifuge tubes and mixed with the pre-loaded anti-coagulant K2EDTA (5 μL, 0.5 M). Plasma samples were then prepared by centrifuging the blood samples. All plasma samples were then quickly frozen over dry ice and kept at −60° C. or lower until LC/MS/MS analysis. The concentrations of test article in plasma were determined by using a quantitative bioanalytical LC/MS/MS method. The lower limit of quantitation (LLOQ) for test article in plasma was 1 ng/mL, and the upper limit of quantitation (ULOQ) in plasma was 3000 ng/mL. The plasma concentration of test article in rats was subjected to a non compartmental pharmacokinetic analysis by using the Phoenix WinNonlin software (version 6.3, Pharsight, Mountain View, Calif.). The linear/log trapezoidal rule was applied in obtaining the PK parameters.
# human NaV1.6 (hNaV1.6) = human NaV1.6 (hNaV1.6) (Homo sapiens (Human), UniProt Q9UQD0); experiment: INaL inhibition at hNaV1.6, PatchXpress electrophysiology; format: cell-based
# Sequence of human NaV1.6 (hNaV1.6) (Q9UQD0 whole entry): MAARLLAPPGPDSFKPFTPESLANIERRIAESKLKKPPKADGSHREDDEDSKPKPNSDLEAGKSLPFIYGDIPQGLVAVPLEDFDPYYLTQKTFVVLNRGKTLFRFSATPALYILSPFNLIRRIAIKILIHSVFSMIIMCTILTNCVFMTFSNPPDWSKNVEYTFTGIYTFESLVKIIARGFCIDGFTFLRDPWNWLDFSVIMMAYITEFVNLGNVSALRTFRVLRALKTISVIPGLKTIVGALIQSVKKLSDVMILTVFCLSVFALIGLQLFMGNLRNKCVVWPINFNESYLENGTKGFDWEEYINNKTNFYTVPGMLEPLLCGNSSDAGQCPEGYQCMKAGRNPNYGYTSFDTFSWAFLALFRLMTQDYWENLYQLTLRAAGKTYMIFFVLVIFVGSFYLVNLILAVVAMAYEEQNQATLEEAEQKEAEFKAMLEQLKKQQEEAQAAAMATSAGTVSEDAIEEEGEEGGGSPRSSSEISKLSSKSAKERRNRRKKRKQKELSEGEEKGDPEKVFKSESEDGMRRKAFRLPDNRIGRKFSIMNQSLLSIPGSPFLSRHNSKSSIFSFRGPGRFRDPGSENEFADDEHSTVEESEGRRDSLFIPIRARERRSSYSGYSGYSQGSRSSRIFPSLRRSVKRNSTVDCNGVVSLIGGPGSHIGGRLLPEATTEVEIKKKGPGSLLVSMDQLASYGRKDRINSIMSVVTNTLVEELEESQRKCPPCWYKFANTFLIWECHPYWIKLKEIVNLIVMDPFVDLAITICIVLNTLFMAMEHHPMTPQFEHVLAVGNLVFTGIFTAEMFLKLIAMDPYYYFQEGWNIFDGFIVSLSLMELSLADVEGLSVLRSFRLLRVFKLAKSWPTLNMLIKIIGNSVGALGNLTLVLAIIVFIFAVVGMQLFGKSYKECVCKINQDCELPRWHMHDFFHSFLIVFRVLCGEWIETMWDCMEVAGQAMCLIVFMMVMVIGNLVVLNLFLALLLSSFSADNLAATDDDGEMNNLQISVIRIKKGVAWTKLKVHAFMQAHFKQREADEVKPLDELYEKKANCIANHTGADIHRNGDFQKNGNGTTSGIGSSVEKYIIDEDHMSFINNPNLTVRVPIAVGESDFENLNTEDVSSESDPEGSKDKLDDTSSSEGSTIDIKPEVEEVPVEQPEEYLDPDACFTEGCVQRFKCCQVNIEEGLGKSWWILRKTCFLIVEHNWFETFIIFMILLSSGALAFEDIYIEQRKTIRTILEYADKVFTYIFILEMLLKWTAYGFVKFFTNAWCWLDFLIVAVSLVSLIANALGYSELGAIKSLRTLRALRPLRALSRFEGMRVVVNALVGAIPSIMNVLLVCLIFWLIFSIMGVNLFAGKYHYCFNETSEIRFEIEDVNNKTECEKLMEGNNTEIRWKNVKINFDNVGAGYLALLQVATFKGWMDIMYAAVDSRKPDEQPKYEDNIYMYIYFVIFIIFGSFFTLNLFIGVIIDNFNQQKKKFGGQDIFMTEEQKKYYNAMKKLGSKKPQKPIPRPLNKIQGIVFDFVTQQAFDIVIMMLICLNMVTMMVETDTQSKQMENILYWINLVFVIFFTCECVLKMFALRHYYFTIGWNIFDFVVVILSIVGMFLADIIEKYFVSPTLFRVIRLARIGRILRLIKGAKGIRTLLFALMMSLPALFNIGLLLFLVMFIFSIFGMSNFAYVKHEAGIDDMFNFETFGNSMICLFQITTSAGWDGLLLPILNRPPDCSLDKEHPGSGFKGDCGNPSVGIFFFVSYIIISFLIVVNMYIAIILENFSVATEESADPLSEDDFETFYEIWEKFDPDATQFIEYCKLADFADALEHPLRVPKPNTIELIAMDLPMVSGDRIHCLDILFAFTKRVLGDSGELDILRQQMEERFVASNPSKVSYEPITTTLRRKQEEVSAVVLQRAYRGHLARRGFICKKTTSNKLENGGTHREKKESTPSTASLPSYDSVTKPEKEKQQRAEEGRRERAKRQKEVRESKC
# Description: Functional characterization of exemplary compounds to modulate INaL expressed by the Nay 1.6 voltage-gated sodium channel was accomplished using the PatchXpress™ high throughput electrophysiology platform (Molecular Devices, Sunnyvale, Calif.). HEK-293 cells expressing recombinant, human NaV1.6 (hNaV1.6) were grown in DMEM/high-glucose Dulbecco's modified, 10% FBS, 2 mM sodium pyruvate, 10 mM HEPES and 400 μg/mL G418. Cells were grown to 50%-80% confluency prior to harvesting. […] The onboard liquid handling facility of the PatchXpress was used for dispensing cells and applying test compounds. Nay late currents were evoked by the application of 300 nM ATX-II. […] INaL amplitude and stability were determined by analyzing the mean current amplitude over the final 20 ms of the test pulse. […] Percent steady-state inhibition of INaL was calculated as: [(INaL_compound)/(INaL_control)]*100, where INaL_compound and INaL_control represent INaL recorded in the presence or absence of compound, respectively.
# [2] = HEK293, 1 μM, HEK-293 cells expressing hNaV1.6, late current evoked by 300 nM ATX-II, read-out: INaL v1.6 (1 μM, % Inhibition)
# [3] = 1 μM, HEK-293 cells expressing hNaV1.6, late current evoked by 300 nM ATX-II
# [4] = HEK293, read-out: INaL v1.6 (1 μM, % Inhibition)
SMILES,inhibition at 1 µM (human NaV1.6 (hNaV1.6); [2]) [%],other results
FC(F)(F)Oc1ccc(-c2ccc3nnc(C4(F)CC4)n3n2)cc1 [Compound 61],> 70,clearance [1]: 1.6 mL/min/kg; half-life [1]: 15.2 h
"FC(F)(F)Oc1ccc(-c2cn3c(C[C@@H]4CCCOC4)nnc3cn2)cc1 (single isomer, unassigned) [Compound 155]",< 30,
COc1cc(C2(C#N)CC2)ccc1-c1cn2c(C(F)(F)F)nnc2cn1 [Compound 64],< 30,
CC(C)OCc1ccc(-c2cn3c(C(F)(F)F)nnc3cn2)cc1 [Compound 195],< 30,
Fc1cc(-c2cn3c(C(F)(F)F)nnc3cn2)cnc1OC1CC(F)(F)C1 [Compound 84],,"INaL v1.6 (1 μM, % Inhibition) (human NaV1.6 (hNaV1.6); [3]): C (inhibition of greater than 70%)"
FC(F)(F)COc1ccc(-c2cn3c(C(F)(F)F)nnc3cn2)cn1 [Compound 179],30 to 70,
"FC(F)(F)c1nnc2cnc(-c3ccc([C@@H]4CC4(F)F)cc3)cn12 [Compound 152, 6-[4-[(1S)-2,2-difluorocyclopropyl]phenyl]-3-(trifluoromethyl)-[1,2,4]triazolo[4,3-a]pyrazine]",> 70,
COCc1ccc(-c2cn3c(C(F)F)nnc3cn2)cc1 [Compound 170],< 30,
"FC(F)c1nnc2cnc(-c3ccc([C@@H]4CC4(F)F)cc3)cn12 [Compound 167, 6-[4-[(1S)-2,2-difluorocyclopropyl]phenyl]-3-(difluoromethyl)-[1,2,4]triazolo[4,3-a]pyrazine]",30 to 70,
N#CC1(c2ccc(-c3ccc4nnc(C(F)(F)F)n4n3)cc2)CCC1 [Compound 60],,inhibition at 1 µM (human NaV1.6 (hNaV1.6); [4]): 30 to 70%
CC(C)(C#N)c1ccc(-c2cn3c(C(F)F)nnc3cn2)cc1 [Compound 57],,inhibition at 1 µM (human NaV1.6 (hNaV1.6); [4]): < 30%
Cc1cc(OC2CC(F)(F)C2)ccc1-c1cn2c(C(F)(F)F)nnc2cn1 [Compound 174],30 to 70,
Fc1cc(-c2ccc3nnc(C4CC(F)(F)C4)n3n2)cnc1OCC(F)(F)F [Compound 83],30 to 70,
C[C@@H](Oc1ncc(-c2cn3c(C(F)F)nnc3cn2)cc1F)C(F)(F)F [Compound 134],,"INaL v1.6 (1 μM, % Inhibition) (human NaV1.6 (hNaV1.6); [3]): C (inhibition of greater than 70%)"
"OCc1ccc(-c2cn3c(C(F)F)nnc3cn2)cc1 [Compound 172, [4-[3-(difluoromethyl)-[1,2,4]triazolo[4,3-a]pyrazin-6-yl]phenyl]methanol]",< 30,
FC(F)(F)c1ccc(-c2cn3c(C(F)(F)F)nnc3cn2)cc1 [Compound 62],30 to 70,
"OCc1ccc(-c2cn3c(C(F)(F)F)nnc3cn2)cc1 [Compound 196, [4-[3-(trifluoromethyl)-[1,2,4]triazolo[4,3-a]pyrazin-6-yl]phenyl]methanol]",< 30,
COc1nnc2cnc(-c3ccc(OC(F)(F)F)cc3)cn12 [Compound 148],< 30,
Cc1nnc2cnc(-c3ccc(OC(F)(F)F)cc3)cn12 [Compound 95],,inhibition at 1 µM (human NaV1.6 (hNaV1.6); [4]): < 30%

SMILES,inhibition at 1 µM (human NaV1.6 (hNaV1.6); [2]) [%],other results
COCc1cc(-c2cn3c(C(F)F)nnc3cn2)ccc1OC(F)(F)F [Compound 144],< 30,
FC(F)c1nnc2cnc(-c3ccc(OC4CC(F)(F)C4)cc3)cn12 [Compound 178],30 to 70,
CCOc1ccc(-c2cn3c(C(F)(F)F)nnc3cn2)cc1 [Compound 74],< 30,
COCc1ccc(-c2cn3c(C(F)(F)F)nnc3cn2)cc1 [Compound 180],< 30,
FCCc1nnc2cnc(-c3ccc(OC(F)(F)F)cc3)cn12 [Compound 119],< 30,
COCc1cc(C(F)(F)F)ccc1-c1cn2c(C(F)F)nnc2cn1 [Compound 141],30 to 70,
COCc1cc(OC(F)(F)F)ccc1-c1cn2c(C(F)F)nnc2cn1 [Compound 142],> 70,
Fc1cc(-c2ccc3nnc(C(F)(F)F)n3n2)ccc1OC1CC(F)(F)C1 [Compound 100],30 to 70,
COCc1cc(OC(F)(F)F)ccc1-c1cn2c(C(F)(F)F)nnc2cn1 [Compound 66],,"INaL v1.6 (1 μM, % Inhibition) (human NaV1.6 (hNaV1.6); [3]): C (inhibition of greater than 70%)"
N#CC1(c2ccc(-c3ccc4nnc(C(F)(F)F)n4n3)cc2F)CC1 [Compound 104],,inhibition at 1 µM (human NaV1.6 (hNaV1.6); [4]): < 30%
COCc1cc(-c2cn3c(C(F)(F)F)nnc3cn2)ccc1C(F)(F)F [Compound 157],30 to 70,
"FC(F)(F)c1nnc2ccc(-c3ccc([C@H]4CC4(F)F)cc3)nn12 [Compound 121, 6-[4-[(1R)-2,2-difluorocyclopropyl]phenyl]-3-(trifluoromethyl)-[1,2,4]triazolo[4,3-b]pyridazine]",,inhibition at 1 µM (human NaV1.6 (hNaV1.6); [4]): > 70%
COC(C)(C)c1ccc(-c2cn3c(C(F)F)nnc3cn2)cc1 [Compound 51],< 30,
N#CC1(c2ccc(-c3cn4c(C(F)(F)F)nnc4cn3)cc2)CCC1 [Compound 71],30 to 70,
Fc1cc(-c2ccc3nnc(C4(F)CC4)n3n2)cnc1OCC(F)(F)F [Compound 88],30 to 70,
COCc1cc(-c2cn3c(C(F)(F)F)nnc3cn2)ccc1OC(F)(F)F [Compound 173],30 to 70,
"FC(F)(F)Oc1ccc(-c2cn3c(C[C@@H]4CCCCO4)nnc3cn2)cc1 [Compound 130, 3-[[(2S)-tetrahydropyran-2-yl]methyl]-6-[4-(trifluoromethoxy)phenyl]-[1,2,4]triazolo[4,3-a]pyrazine]",30 to 70,
COc1cc(OC(F)(F)F)ccc1-c1cn2c(C(F)F)nnc2cn1 [Compound 48],< 30,
"C[C@@H](Oc1ccc(-c2ccc3nnc(C(F)(F)F)n3n2)cn1)C(F)(F)F [Compound 199, 3-(trifluoromethyl)-6-[6-[(1R)-2,2,2-trifluoro-1-methyl-ethoxy]-3-pyridyl]-[1,2,4]triazolo[4,3-b]pyridazine]",> 70,

# Now from value to compound, other results behind:
inhibition at 1 µM (human NaV1.6 (hNaV1.6); [2]) [%],SMILES,other results
< 30,NC(=O)c1cc(-c2ccc(OC(F)(F)F)cc2)nn2c(C(F)(F)F)nnc12 [Compound 183],
30 to 70,"Cc1cc2nnc(C(F)(F)F)n2nc1-c1ccc(OC(F)(F)F)cc1 [Compound 140, 7-methyl-6-[4-(trifluoromethoxy)phenyl]-3-(trifluoromethyl)-[1,2,4]triazolo[4,3-b]pyridazine]",
< 30,N#Cc1cc(C(F)(F)F)ccc1-c1ccc2nnc(C(F)(F)F)n2n1 [Compound 4],
< 30,COCc1cc(-c2ccc(OC(F)(F)F)cc2)nn2c(C(F)(F)F)nnc12 [Compound 163],
> 70,FC(F)(F)Oc1ccc(-c2cn3c(C(F)(F)F)nnc3cn2)cc1 [Compound 56],
30 to 70,"OCc1cc(-c2ccc3nnc(C(F)(F)F)n3n2)ccc1OC(F)(F)F [Compound 115, [2-(trifluoromethoxy)-5-[3-(trifluoromethyl)-[1,2,4]triazolo[4,3-b]pyridazin-6-yl]phenyl]methanol]",
> 70,FC(F)(F)OCc1ccc(-c2ccc3nnc(C(F)(F)F)n3n2)cc1 [Compound 118],
30 to 70,COc1cc(OC(F)(F)F)ccc1-c1cn2c(C(F)(F)F)nnc2cn1 [Compound 70],
30 to 70,FC(F)OCc1cc(OC(F)(F)F)ccc1-c1ccc2nnc(C(F)(F)F)n2n1 [Compound 101],
> 70,Fc1cc2nnc(C(F)(F)F)n2nc1-c1ccc(OC(F)(F)F)cc1 [Compound 187],
< 30,FC(F)(F)Oc1ccc(-c2cc(Cl)c3nnc(C(F)(F)F)n3n2)cc1 [Compound 189],
< 30,"O=C(O)c1cc2nnc(C(F)(F)F)n2nc1-c1ccc(OC(F)(F)F)cc1 [Compound 184, 6-[4-(trifluoromethoxy)phenyl]-3-(trifluoromethyl)-[1,2,4]triazolo[4,3-b]pyridazine-7-carboxylic acid]",
< 30,"Cc1cc(-c2ccc(OC(F)(F)F)cc2)nn2c(C(F)(F)F)nnc12 [Compound 139, 8-methyl-6-[4-(trifluoromethoxy)phenyl]-3-(trifluoromethyl)-[1,2,4]triazolo[4,3-b]pyridazine]",
< 30,"Nc1cc2nnc(C(F)(F)F)n2nc1-c1ccc(OC(F)(F)F)cc1 [Compound 190, 6-[4-(trifluoromethoxy)phenyl]-3-(trifluoromethyl)-[1,2,4]triazolo[4,3-b]pyridazin-7-amine]",
< 30,"O=C(O)c1cc(-c2ccc(OC(F)(F)F)cc2)nn2c(C(F)(F)F)nnc12 [Compound 181, 6-[4-(trifluoromethoxy)phenyl]-3-(trifluoromethyl)-[1,2,4]triazolo[4,3-b]pyridazine-8-carboxylic acid]",
> 70,COC(F)(F)c1nnc2cnc(-c3ccc(OC(F)(F)F)cc3)cn12 [Compound 97],
< 30,FC(F)(F)Oc1ccc(Cl)c(-c2ccc3nnc(C(F)(F)F)n3n2)c1 [Compound 35],
< 30,FC(F)(F)Oc1ccc(-c2cnc3nnc(C(F)(F)F)n3c2)cc1 [Compound 54],
> 70,COc1cc(C(F)(F)F)ccc1-c1ccc2nnc(C(F)(F)F)n2n1 [Compound 89],
< 30,N#Cc1ccc(OC(F)(F)F)cc1-c1ccc2nnc(C(F)(F)F)n2n1 [Compound 40],
< 30,FC(F)(F)COc1nnc2cnc(-c3ccc(OC(F)(F)F)cc3)cn12 [Compound 150],
